Test results as given in patent publication US7786298B2, “Compounds and methods for nucleic acid mismatch detection” (California Institute of Technology, priority 2006, dated 2010).

Tested on: oligonucleotides containing a central CC mismatch
Assay: Photocleavage testing, denaturing PAGE of 5′-32P-end-labeled oligonucleotides
Type: biochemical
Conditions: duplex 1 μM, Rh 1 μM, 20 mM NaCl, 10 mM NaPi, pH 7.1, 30 min, irradiation 5 min (325-450 nm); fully matched and mismatched oligonucleotides
Description: Compounds PEG-RhOG and [Rh(chrysi)(phen)(^PEGbipy)]^3+(i.e., compound A and intermediate 2, respectively, as described above) were used for photocleavage testing. Denaturing PAGE experiments with 5′-32P-end-labeled oligonucleotides containing or lacking a central CC mismatch were employed to test specific site targeting. Duplex DNA (1 μM) was incubated with variable concentrations of compound A (100 nm to 5 μM) for 30 min and then irradiated for 5 min.
Conditions were duplex (1 μM), Rh (1 μM) in 20 mM NaCl, 10 mM NaPi, pH 7.1 for 30 min at ambient temperature followed by irradiation for 5 min with a solar simulator (325-450 nm). Lanes 1, 2, 11, and 12 show Maxam-Gilbert sequencing reactions for matched (1, 2) and mismatched (11, 12) DNA. For matched and mismatched DNA, respectively, lanes 3 and 7 show fragments irradiated with no metal complex; lanes 4 and 8 show fragments with compound A but no irradiation; lanes 5, 6, 9, and 10 show fragments after irradiation in the presence of compound A (5, 9) and intermediate 2 (6, 10). The DNA sequence was 5′-32P-end-labeled-GCGCCGTCGTXCATGTG-3′ (SEQ ID NO:4) where X=C, G with a complement containing a matched or mismatched C at the bold site. The arrow marks the mismatched site.

Q: With “[Rh(chrysi)(phen)(^PEGbipy)]^3+ [intermediate 2]” as the substance, how does the “photocleavage on autoradiogram of denaturing 20% polyacrylamide gel” value read?
A: Its value is “photocleavage”.
